# In patent publication US20260262643A1, “HERBICIDAL BENZOXAZINES” (FMC CORPORATION, priority 2022, published 2026):
# Key:
# barnyardgrass [1] = experiment: Test C preemergence; type: in vivo, Echinochloa crusgalli; conditions: 0 to 100 scale (0 no effect, 100 complete control); for Plant response rating, Barnyardgrass: Preemergence, 500 g ai/ha, visual rating after 10 days; for Barnyardgrass plant response rating: Test C, preemergence, 125 g ai/ha
# Summary of the method: (§1)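 Seeds in loam–sand blend received preemergence directed soil spray of test chemicals in non-phytotoxic solvent with surfactant; postemergence treatment was applied at one- to two-leaf stage (2–10 cm). After 10 days in greenhouse, injury rated visually versus untreated controls, 0 (no effect) to 100 (complete control).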
# blackgrass [2] = experiment: Test C preemergence; type: in vivo, Alopecurus myosuroides; conditions: 0 to 100 scale (0 no effect, 100 complete control); for Plant response rating, Blackgrass: Preemergence, 500 g ai/ha, visual rating after 10 days; for Blackgrass plant response rating: Test C, preemergence, 125 g ai/ha
# Summary of the method: as §1
# corn [3] = experiment: Test C preemergence; type: in vivo, Zea mays; conditions: 0 to 100 scale (0 no effect, 100 complete control); for Plant response rating, Corn: Preemergence, 500 g ai/ha, visual rating after 10 days; for Corn plant response rating: Test C, preemergence, 125 g ai/ha
# Summary of the method: as §1
# green foxtail [4] = experiment: Test C preemergence; type: in vivo, Setaria viridis; conditions: 0 to 100 scale (0 no effect, 100 complete control); for Plant response rating, Foxtail, Green: Preemergence, 500 g ai/ha, visual rating after 10 days; for Foxtail, Green plant response rating: Test C, preemergence, 125 g ai/ha
# Summary of the method: as §1
# kochia [5] = experiment: Test C preemergence; type: in vivo, Bassia scoparia; conditions: 0 to 100 scale (0 no effect, 100 complete control); for Plant response rating, Kochia: Preemergence, 500 g ai/ha, visual rating after 10 days; for Kochia plant response rating: Test C, preemergence, 125 g ai/ha
# Summary of the method: as §1
# oat, wild [6] = experiment: Test C preemergence; type: in vivo, Avena fatua; conditions: 0 to 100 scale (0 no effect, 100 complete control); for Plant response rating, Oat, Wild: Preemergence, 500 g ai/ha, visual rating after 10 days; for Oat, Wild plant response rating: Test C, preemergence, 125 g ai/ha
# Summary of the method: as §1
# pigweed, palmer [7] = experiment: Test C preemergence; type: in vivo, Amaranthus palmeri; conditions: 0 to 100 scale (0 no effect, 100 complete control); for Plant response rating, Pigweed, Palmer: Preemergence, 500 g ai/ha, visual rating after 10 days; for Pigweed, Palmer plant response rating: Test C, preemergence, 125 g ai/ha
# Summary of the method: as §1
# ragweed [8] = experiment: Test C preemergence; type: in vivo, Ambrosia artemisiifolia; conditions: 0 to 100 scale (0 no effect, 100 complete control); for Plant response rating, Ragweed: Preemergence, 500 g ai/ha, visual rating after 10 days; for Ragweed plant response rating: Test C, preemergence, 125 g ai/ha
# Summary of the method: as §1
# ryegrass, Italian [9] = experiment: Test C preemergence; type: in vivo, Lolium multiflorum; conditions: 0 to 100 scale (0 no effect, 100 complete control); for Plant response rating, Ryegrass, Italian: Preemergence, 500 g ai/ha, visual rating after 10 days; for Ryegrass, Italian plant response rating: Test C, preemergence, 125 g ai/ha
# Summary of the method: as §1
# soybean [10] = experiment: Test C preemergence; type: in vivo, Glycine max; conditions: 0 to 100 scale (0 no effect, 100 complete control); for Plant response rating, Soybean: Preemergence, 500 g ai/ha, visual rating after 10 days; for Soybean plant response rating: Test C, preemergence, 125 g ai/ha
# Summary of the method: as §1
# wheat [11] = experiment: Test C preemergence; type: in vivo, Triticum aestivum; conditions: 0 to 100 scale (0 no effect, 100 complete control); for Plant response rating, Wheat: Preemergence, 500 g ai/ha, visual rating after 10 days; for Wheat plant response rating: Test C, preemergence, 125 g ai/ha
# Summary of the method: as §1
# barnyardgrass [12] = experiment: Test C postemergence; type: in vivo, Echinochloa crusgalli; conditions: 10 days
# Summary of the method: as §1
# blackgrass [13] = experiment: Test C postemergence; type: in vivo, Alopecurus myosuroides; conditions: 10 days
# Summary of the method: as §1
# corn [14] = experiment: Test C postemergence; type: in vivo, Zea mays; conditions: 10 days
# Summary of the method: as §1
# green foxtail [15] = experiment: Test C postemergence; type: in vivo, Setaria viridis; conditions: 10 days
# Summary of the method: as §1
# kochia [16] = experiment: Test C postemergence; type: in vivo, Bassia scoparia; conditions: 10 days
# Summary of the method: as §1
# oat, wild [17] = experiment: Test C postemergence; type: in vivo, Avena fatua; conditions: 10 days
# Summary of the method: as §1
# pigweed, palmer [18] = experiment: Test C postemergence; type: in vivo, Amaranthus palmeri; conditions: 10 days
# Summary of the method: as §1
# ragweed [19] = experiment: Test C postemergence; type: in vivo, Ambrosia artemisiifolia; conditions: 10 days
# Summary of the method: as §1
# ryegrass, Italian [20] = experiment: Test C postemergence; type: in vivo, Lolium multiflorum; conditions: 10 days
# Summary of the method: as §1
# soybean [21] = experiment: Test C postemergence; type: in vivo, Glycine max; conditions: 10 days
# Summary of the method: as §1
# wheat [22] = experiment: Test C postemergence; type: in vivo, Triticum aestivum; conditions: 10 days
# Summary of the method: as §1
# galium = experiment: Test C postemergence; type: in vivo, Galium aparine; conditions: 10 days
# Summary of the method: as §1
# horseweed = experiment: Test C postemergence; type: in vivo, Erigeron canadensis; conditions: 10 days
# Summary of the method: as §1
# barnyardgrass [23] = experiment: Test D flooded paddy test; type: in vivo, Echinochloa crus-galli; conditions: 250 g ai/ha, applied to paddy water, visual rating after 13 to 14 days, scale 0 to 100 (0 no effect, 100 complete control)
# Summary of the method: (§2)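 Plants at the 2-leaf stage were grown in pots flooded to 3 cm, and compound was applied directly into the paddy water, with depth kept throughout. After 13–14 days in a greenhouse, injury was rated visually against untreated controls on a 0–100 scale (100 = complete control); a dash means not tested.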
# ducksalad = experiment: Test D flooded paddy test; type: in vivo, Heteranthera limosa; conditions: 250 g ai/ha, applied to paddy water, visual rating after 13 to 14 days, scale 0 to 100 (0 no effect, 100 complete control)
# Summary of the method: as §2
# rice = experiment: Test D flooded paddy test; type: in vivo, Oryza sativa; conditions: 250 g ai/ha, applied to paddy water, visual rating after 13 to 14 days, scale 0 to 100 (0 no effect, 100 complete control)
# Summary of the method: as §2
# sedge, umbrella = experiment: Test D flooded paddy test; type: in vivo, Cyperus difformis; conditions: 250 g ai/ha, applied to paddy water, visual rating after 13 to 14 days, scale 0 to 100 (0 no effect, 100 complete control)
# Summary of the method: as §2
# [24] = 125 g ai/ha, postemergence, 0 to 100 scale, 0 no effect, 100 complete control
# [25] = Postemergence, 500 g ai/ha, visual 0 to 100 scale (0 no effect, 100 complete control)
smiles,measurement,setting,value
"Cc1ccc(-n2cnc(C3CCC3)n2)cc1C(=O)N1CC(C(F)(F)F)Oc2c(Cl)cccc21 (single isomer, unassigned) [Compound 219]","Plant response rating, Barnyardgrass",barnyardgrass [1],100
same,Barnyardgrass plant response rating,barnyardgrass [1],80
same,"Plant response rating, Blackgrass",blackgrass [2],40
same,Blackgrass plant response rating,blackgrass [2],0
same,"Plant response rating, Corn",corn [3],20
same,Corn plant response rating,corn [3],10
same,"Plant response rating, Foxtail, Green",green foxtail [4],100
same,"Foxtail, Green plant response rating",green foxtail [4],100
same,"Plant response rating, Kochia",kochia [5],100
same,Kochia plant response rating,kochia [5],90
same,"Plant response rating, Oat, Wild","oat, wild [6]",70
same,"Oat, Wild plant response rating","oat, wild [6]",30
same,"Plant response rating, Pigweed, Palmer","pigweed, palmer [7]",100
same,"Pigweed, Palmer plant response rating","pigweed, palmer [7]",100
same,"Plant response rating, Ragweed",ragweed [8],70
same,Ragweed plant response rating,ragweed [8],30
same,"Plant response rating, Ryegrass, Italian","ryegrass, Italian [9]",80
same,"Ryegrass, Italian plant response rating","ryegrass, Italian [9]",90
same,"Plant response rating, Soybean",soybean [10],90
same,Soybean plant response rating,soybean [10],70
same,"Plant response rating, Wheat",wheat [11],50
same,Wheat plant response rating,wheat [11],20
same,"Plant response rating, Barnyardgrass",barnyardgrass [12]; [24],70
same,"Plant response rating, Barnyardgrass",barnyardgrass [12]; [25],100
same,"Plant response rating, Blackgrass",blackgrass [13]; [24],40
same,"Plant response rating, Blackgrass",blackgrass [13]; [25],50
same,"Plant response rating, Corn",corn [14]; [24],20
same,"Plant response rating, Corn",corn [14]; [25],30
same,"Plant response rating, Foxtail, Green",green foxtail [15]; [24],80
same,"Plant response rating, Foxtail, Green",green foxtail [15]; [25],90
same,"Plant response rating, Kochia",kochia [16]; [24],80
same,"Plant response rating, Kochia",kochia [16]; [25],90
same,"Plant response rating, Oat, Wild","oat, wild [17]; [24]",10
same,"Plant response rating, Oat, Wild","oat, wild [17]; [25]",40
same,"Plant response rating, Pigweed, Palmer","pigweed, palmer [18]; [24]",100
same,"Plant response rating, Pigweed, Palmer","pigweed, palmer [18]; [25]",100
same,"Plant response rating, Ragweed",ragweed [19]; [24],50
same,"Plant response rating, Ragweed",ragweed [19]; [25],90
same,"Plant response rating, Ryegrass, Italian","ryegrass, Italian [20]; [24]",50
same,"Plant response rating, Ryegrass, Italian","ryegrass, Italian [20]; [25]",70
same,"Plant response rating, Soybean",soybean [21]; [24],100
same,"Plant response rating, Soybean",soybean [21]; [25],100
same,"Plant response rating, Wheat",wheat [22]; [24],20
same,"Plant response rating, Wheat",wheat [22]; [25],40
same,"Plant response rating, Galium",galium; [24],100
same,"Plant response rating, Galium",galium; [25],100
same,"Plant response rating, Horseweed",horseweed; [25],70
same,"Plant response rating, Barnyardgrass (Flood)",barnyardgrass [23],10
same,"Plant response rating, Ducksalad (Flood)",ducksalad,50
same,"Plant response rating, Rice (Flood)",rice,0
same,"Plant response rating, Sedge, Umbrella (Flood)","sedge, umbrella",50
CC(C)c1ncn(-c2ccc(SC(F)(F)F)c(C(=O)N3C[C@H](C)Oc4c(Cl)cccc43)c2)n1 [Compound 249],"Plant response rating, Barnyardgrass",barnyardgrass [1],20
same,Barnyardgrass plant response rating,barnyardgrass [1],20
same,"Plant response rating, Blackgrass",blackgrass [2],60
same,Blackgrass plant response rating,blackgrass [2],20
same,"Plant response rating, Corn",corn [3],0
same,Corn plant response rating,corn [3],0
same,"Plant response rating, Foxtail, Green",green foxtail [4],90
same,"Foxtail, Green plant response rating",green foxtail [4],90
same,"Plant response rating, Kochia",kochia [5],0
same,Kochia plant response rating,kochia [5],0
same,"Plant response rating, Oat, Wild","oat, wild [6]",0
same,"Oat, Wild plant response rating","oat, wild [6]",0
same,"Plant response rating, Pigweed, Palmer","pigweed, palmer [7]",30
same,"Pigweed, Palmer plant response rating","pigweed, palmer [7]",30
same,"Plant response rating, Ragweed",ragweed [8],0
same,Ragweed plant response rating,ragweed [8],0
same,"Plant response rating, Ryegrass, Italian","ryegrass, Italian [9]",60
same,"Ryegrass, Italian plant response rating","ryegrass, Italian [9]",40
same,"Plant response rating, Soybean",soybean [10],20
same,Soybean plant response rating,soybean [10],0
same,"Plant response rating, Wheat",wheat [11],0
same,Wheat plant response rating,wheat [11],0
same,"Plant response rating, Barnyardgrass",barnyardgrass [12]; [24],10
same,"Plant response rating, Barnyardgrass",barnyardgrass [12]; [25],10
same,"Plant response rating, Blackgrass",blackgrass [13]; [24],0
same,"Plant response rating, Blackgrass",blackgrass [13]; [25],0
same,"Plant response rating, Corn",corn [14]; [24],0
same,"Plant response rating, Corn",corn [14]; [25],10
same,"Plant response rating, Foxtail, Green",green foxtail [15]; [24],30
same,"Plant response rating, Foxtail, Green",green foxtail [15]; [25],30
same,"Plant response rating, Kochia",kochia [16]; [24],50
same,"Plant response rating, Kochia",kochia [16]; [25],80
same,"Plant response rating, Oat, Wild","oat, wild [17]; [24]",0
same,"Plant response rating, Oat, Wild","oat, wild [17]; [25]",0
same,"Plant response rating, Pigweed, Palmer","pigweed, palmer [18]; [24]",40
same,"Plant response rating, Pigweed, Palmer","pigweed, palmer [18]; [25]",70
same,"Plant response rating, Ragweed",ragweed [19]; [24],0
same,"Plant response rating, Ragweed",ragweed [19]; [25],0
same,"Plant response rating, Ryegrass, Italian","ryegrass, Italian [20]; [24]",0
same,"Plant response rating, Ryegrass, Italian","ryegrass, Italian [20]; [25]",0
same,"Plant response rating, Soybean",soybean [21]; [24],100
same,"Plant response rating, Soybean",soybean [21]; [25],100
same,"Plant response rating, Wheat",wheat [22]; [24],10
same,"Plant response rating, Wheat",wheat [22]; [25],10
same,"Plant response rating, Galium",galium; [24],90
same,"Plant response rating, Horseweed",horseweed; [24],0
same,"Plant response rating, Horseweed",horseweed; [25],0
same,"Plant response rating, Barnyardgrass (Flood)",barnyardgrass [23],0
same,"Plant response rating, Ducksalad (Flood)",ducksalad,0
same,"Plant response rating, Rice (Flood)",rice,0
same,"Plant response rating, Sedge, Umbrella (Flood)","sedge, umbrella",0
